Measured values as given in ChEMBL document CHEMBL4382217 (Bioorg Med Chem, 2018).

Legend:
[1] = Selectivity index, ratio of GI50 for human A431 cells harboring WT EGFR to GI50 for human NCI-H1975 cells harboring EGFR T790M/L858R double mutant
[2] = (§1) Antiproliferative activity against human A431 cells harboring WT EGFR after 72 hrs by MTS assay; type: cell-based, A-431; settings: human, A431 cells harboring WT EGFR
NCI-H1975 [3] = assay: Antiproliferative activity against human NCI-H1975 cells harboring EGFR T790M/L858R double mutant after 72 hrs by MTS assay; type: functional, cell-based; settings: Homo sapiens, NCI-H1975, 72 h
A-431 = assay: as §1; type: cell-based; settings: Homo sapiens, A-431, 72 h
HCC827 [4] = assay: Antiproliferative activity against human HCC827 cells harboring EGFR mutant after 72 hrs by MTS assay; type: functional, cell-based; settings: HCC827, 72 h
[5] = Drug level in human liver microsomes treated with N-(2-((2-(Dimethylamino)ethyl)(methyl)amino)-4-methoxy-5-((4-(1-methyl-1H-pyrrolo[3,2-b]pyridin-3-yl)pyrimidin-2-yl)amino)phenyl)acrylamide by LC-MS/MS analysis; type: ADME, Microsome
Calu-6 = assay: Antiproliferative activity against human Calu6 cells harboring WT EGFR after 72 hrs by MTS assay; type: cell-based; settings: Calu-6, 72 h
Calu-3 = assay: Antiproliferative activity against human Calu3 cells harboring WT EGFR after 72 hrs by MTS assay; type: cell-based; settings: Calu-3, 72 h
[6] = molecular target: T1, Epidermal growth factor receptor (Homo sapiens, UniProt P00533); assay: Inhibition of recombinant human N-terminal GST-tagged EGFR (696-end residues) expressed in baculovirus expression system using Srctide as substrate by fluorescence assay
T1 sequence (P00533 whole entry): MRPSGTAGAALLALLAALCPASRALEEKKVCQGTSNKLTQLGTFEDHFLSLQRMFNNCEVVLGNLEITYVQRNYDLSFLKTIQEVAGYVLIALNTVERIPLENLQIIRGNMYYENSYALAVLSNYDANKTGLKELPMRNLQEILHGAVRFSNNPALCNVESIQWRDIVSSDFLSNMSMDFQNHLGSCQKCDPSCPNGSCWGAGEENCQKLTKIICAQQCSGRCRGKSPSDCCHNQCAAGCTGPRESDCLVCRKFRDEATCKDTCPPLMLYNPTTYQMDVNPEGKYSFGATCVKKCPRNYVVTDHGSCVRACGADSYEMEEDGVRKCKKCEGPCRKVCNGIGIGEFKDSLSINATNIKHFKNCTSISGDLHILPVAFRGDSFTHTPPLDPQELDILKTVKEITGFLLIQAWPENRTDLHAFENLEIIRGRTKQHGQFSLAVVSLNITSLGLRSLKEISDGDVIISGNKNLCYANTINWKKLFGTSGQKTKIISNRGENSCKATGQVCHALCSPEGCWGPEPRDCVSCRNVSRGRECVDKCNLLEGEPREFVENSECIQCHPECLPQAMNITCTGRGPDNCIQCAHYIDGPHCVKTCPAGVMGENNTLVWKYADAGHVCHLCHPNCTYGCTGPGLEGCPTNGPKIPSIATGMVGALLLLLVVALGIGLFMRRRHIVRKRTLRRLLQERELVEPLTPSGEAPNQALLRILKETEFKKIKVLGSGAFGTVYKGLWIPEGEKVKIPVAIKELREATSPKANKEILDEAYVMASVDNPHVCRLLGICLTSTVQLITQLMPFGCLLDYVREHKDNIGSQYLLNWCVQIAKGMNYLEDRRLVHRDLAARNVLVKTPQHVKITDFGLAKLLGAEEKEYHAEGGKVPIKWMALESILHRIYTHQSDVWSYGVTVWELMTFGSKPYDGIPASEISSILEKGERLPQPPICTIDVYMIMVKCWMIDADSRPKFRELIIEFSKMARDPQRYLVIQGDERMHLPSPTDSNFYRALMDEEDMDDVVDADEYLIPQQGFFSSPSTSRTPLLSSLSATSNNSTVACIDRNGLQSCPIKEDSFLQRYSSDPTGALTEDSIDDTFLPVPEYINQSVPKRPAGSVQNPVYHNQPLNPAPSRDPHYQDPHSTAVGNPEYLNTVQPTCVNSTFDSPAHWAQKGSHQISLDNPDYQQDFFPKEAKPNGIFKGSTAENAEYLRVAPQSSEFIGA

[7] = molecular target: Epidermal growth factor receptor (Homo sapiens, UniProt P00533, L858R/T790M); assay: Inhibition of recombinant human N-terminal GST-tagged EGFR T790M/L858R double mutant (696-end residues) by fluorescence assay
Chain of Epidermal growth factor receptor (Homo sapiens, UniProt P00533, L858R/T790M) (P00533 25-1210 T790M/L858R limits assumed): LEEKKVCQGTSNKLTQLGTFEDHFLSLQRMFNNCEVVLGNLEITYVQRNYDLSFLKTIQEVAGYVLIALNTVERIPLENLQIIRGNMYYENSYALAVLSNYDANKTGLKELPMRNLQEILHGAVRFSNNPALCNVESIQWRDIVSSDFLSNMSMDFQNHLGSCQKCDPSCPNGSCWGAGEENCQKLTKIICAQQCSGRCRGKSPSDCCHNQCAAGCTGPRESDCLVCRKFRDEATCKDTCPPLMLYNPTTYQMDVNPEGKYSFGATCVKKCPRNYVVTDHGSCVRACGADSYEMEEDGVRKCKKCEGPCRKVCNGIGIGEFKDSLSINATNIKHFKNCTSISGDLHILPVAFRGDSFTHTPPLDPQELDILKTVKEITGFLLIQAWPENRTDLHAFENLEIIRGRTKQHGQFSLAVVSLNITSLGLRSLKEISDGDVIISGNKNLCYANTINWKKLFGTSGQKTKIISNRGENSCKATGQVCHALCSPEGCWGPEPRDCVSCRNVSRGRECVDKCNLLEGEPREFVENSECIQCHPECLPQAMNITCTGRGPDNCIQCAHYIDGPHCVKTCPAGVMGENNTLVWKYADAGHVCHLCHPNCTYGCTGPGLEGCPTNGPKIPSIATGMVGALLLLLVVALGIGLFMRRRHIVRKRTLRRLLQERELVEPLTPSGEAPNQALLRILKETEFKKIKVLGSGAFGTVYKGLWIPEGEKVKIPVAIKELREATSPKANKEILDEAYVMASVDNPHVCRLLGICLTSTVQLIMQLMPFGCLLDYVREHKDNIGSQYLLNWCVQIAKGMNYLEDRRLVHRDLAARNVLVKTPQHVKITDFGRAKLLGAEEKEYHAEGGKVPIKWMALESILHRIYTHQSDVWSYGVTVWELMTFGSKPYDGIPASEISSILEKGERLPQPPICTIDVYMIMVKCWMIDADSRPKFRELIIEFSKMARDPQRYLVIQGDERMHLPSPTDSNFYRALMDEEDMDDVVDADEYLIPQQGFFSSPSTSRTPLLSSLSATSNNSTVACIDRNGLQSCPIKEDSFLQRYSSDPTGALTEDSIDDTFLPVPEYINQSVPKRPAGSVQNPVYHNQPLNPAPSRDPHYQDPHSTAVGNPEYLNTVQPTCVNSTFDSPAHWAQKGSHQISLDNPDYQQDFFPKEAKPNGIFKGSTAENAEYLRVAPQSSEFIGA

Homo sapiens = species on record: Homo sapiens; assay: Selectivity index, ratio of IC50 for recombinant human N-terminal GST-tagged EGFR (696-end residues) expressed in baculovirus expression system to IC50 for recombinant human N-terminal GST-tagged EGFR T790M/L858R double mutant (696-end residues)
[8] = molecular target: Epidermal growth factor receptor (Homo sapiens, UniProt P00533, L858R); assay: Inhibition of recombinant human GST-tagged EGFR L858R mutant expressed in baculovirus expression system by fluorescence assay
Chain of Epidermal growth factor receptor (Homo sapiens, UniProt P00533, L858R) (P00533 25-1210 L858R limits assumed): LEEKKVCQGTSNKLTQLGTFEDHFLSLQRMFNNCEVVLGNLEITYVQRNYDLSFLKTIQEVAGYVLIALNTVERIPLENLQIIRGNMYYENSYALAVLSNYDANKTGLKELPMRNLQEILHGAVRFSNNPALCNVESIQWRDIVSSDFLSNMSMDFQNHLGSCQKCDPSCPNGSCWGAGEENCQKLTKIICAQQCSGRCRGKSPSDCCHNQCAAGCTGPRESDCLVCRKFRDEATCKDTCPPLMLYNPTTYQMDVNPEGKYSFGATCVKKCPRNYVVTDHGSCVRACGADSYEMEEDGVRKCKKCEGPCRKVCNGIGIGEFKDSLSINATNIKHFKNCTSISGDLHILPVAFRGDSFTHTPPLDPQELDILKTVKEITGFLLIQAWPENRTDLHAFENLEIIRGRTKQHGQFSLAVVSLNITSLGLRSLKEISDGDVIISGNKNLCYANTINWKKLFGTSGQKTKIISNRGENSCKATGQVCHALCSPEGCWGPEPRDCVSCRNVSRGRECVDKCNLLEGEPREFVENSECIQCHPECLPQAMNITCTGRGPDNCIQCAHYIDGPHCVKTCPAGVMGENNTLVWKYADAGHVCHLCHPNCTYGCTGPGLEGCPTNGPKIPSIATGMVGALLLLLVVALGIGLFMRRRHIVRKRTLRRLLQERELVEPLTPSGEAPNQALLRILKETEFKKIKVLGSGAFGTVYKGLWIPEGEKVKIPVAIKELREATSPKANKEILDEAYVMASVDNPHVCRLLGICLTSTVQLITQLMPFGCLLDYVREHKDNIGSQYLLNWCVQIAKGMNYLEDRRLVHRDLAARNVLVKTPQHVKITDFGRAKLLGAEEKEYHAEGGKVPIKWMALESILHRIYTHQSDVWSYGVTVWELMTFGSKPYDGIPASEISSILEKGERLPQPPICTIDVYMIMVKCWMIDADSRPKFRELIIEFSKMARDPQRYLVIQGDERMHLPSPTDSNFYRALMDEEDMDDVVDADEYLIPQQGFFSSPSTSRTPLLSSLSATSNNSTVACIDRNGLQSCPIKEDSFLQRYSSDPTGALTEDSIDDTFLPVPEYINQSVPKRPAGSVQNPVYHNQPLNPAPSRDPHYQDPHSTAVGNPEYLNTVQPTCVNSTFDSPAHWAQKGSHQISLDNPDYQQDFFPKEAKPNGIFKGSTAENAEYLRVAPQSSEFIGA

PC-9 [9] = assay: Antiproliferative activity against human PC9 cells harboring EGFR mutant after 72 hrs by MTS assay; type: functional, cell-based; settings: PC-9, 72 h
[10] = Toxicity in castrated nude mouse xenografted with human HCC827 cells assessed as body weight loss at 0.3 to 10 mg/kg, po daily for 14 consecutive days; type: organism-based; settings: in vivo
[11] = Selectivity index, ratio of IC50 for human A431 cells harboring WT EGFR to IC50 for human PC9 cells harboring EGFR mutant
[12] = Selectivity index, ratio of IC50 for human A431 cells harboring WT EGFR to IC50 for human NCI-H1975 cells harboring EGFR T790M/L858R double mutant
NCI-H1975 [13] = assay: Antitumor activity against human NCI-H1975 cells harboring EGFR T790M/L858R double mutant xenografted in castrated nude mouse assessed as tumor growth inhibition administered orally daily for 14 consecutive days measured on day 15; type: functional, cell-based
HCC827 [14] = assay: Antitumor activity against human HCC827 cells harboring EGFR exon-19 del mutant xenografted in castrated nude mouse assessed as tumor growth inhibition at 3 mg/kg, po daily for 14 consecutive days measured on day 15 relative to control; type: functional; settings: 360 h, read-out: TGI
[15] = Toxicity in castrated nude mouse xenografted with human NCI-H1975 cells assessed as body weight loss at 5 to 40 mg/kg, po daily for 14 consecutive days; type: organism-based; settings: in vivo
[16] = Toxicity in castrated nude mouse xenografted with human PC9 cells assessed as body weight loss at 2 to 20 mg/kg, po daily for 14 consecutive days; type: organism-based; settings: in vivo
[17] = Selectivity index, ratio of IC50 for human A431 cells harboring WT EGFR to IC50 for human HCC827 cells harboring EGFR mutant
PC-9 [18] = assay: Antitumor activity against human PC9 cells harboring EGFR exon-19 del mutant xenografted in castrated nude mouse assessed as tumor growth inhibition at 5 mg/kg, po daily for 14 consecutive days measured on day 15 relative to control; type: functional; settings: PC-9, po, 360 h, read-out: TGI
NCI-H1975 [19] = assay: Antitumor activity against human NCI-H1975 cells harboring EGFR T790M/L858R double mutant xenografted in castrated nude mouse assessed as tumor growth inhibition at 40 mg/kg, po daily for 14 consecutive days measured on day 15 relative to control; type: functional; settings: 360 h, read-out: TGI
[20] = Selectivity index, ratio of IC50 for human Calu3 cells harboring WT EGFR to IC50 for human NCI-H1975 cells harboring EGFR T790M/L858R double mutant
HCC827 [21] = assay: Antitumor activity against human HCC827 cells harboring EGFR exon-19 del mutant xenografted in castrated nude mouse assessed as tumor growth inhibition at 1 mg/kg, po daily for 14 consecutive days measured on day 15 relative to control; type: functional; settings: 360 h, read-out: TGI
NCI-H1975 [22] = assay: Antitumor activity against human NCI-H1975 cells harboring EGFR T790M/L858R double mutant xenografted in castrated nude mouse assessed as tumor growth inhibition at 5 mg/kg, po daily for 14 consecutive days measured on day 15 relative to control; type: functional; settings: 360 h, read-out: TGI
PC-9 [23] = assay: Antitumor activity against human PC9 cells harboring EGFR exon-19 del mutant xenografted in castrated nude mouse assessed as tumor growth inhibition at 20 mg/kg, po daily for 14 consecutive days measured on day 15 relative to control; type: functional; settings: PC-9, po, 360 h, read-out: TGI
[24] = molecular target: T1, Epidermal growth factor receptor; assay: Inhibition of WT EGFR in human A431 cells assessed as reduction in ERK phosphorylation at T202/Y204 residues up to 10 uM after 4 hrs by Western blot analysis; type: cell-based
HCC827 [25] = assay: Antitumor activity against human HCC827 cells harboring EGFR exon-19 del mutant xenografted in castrated nude mouse assessed as tumor growth inhibition at 0.3 mg/kg, po daily for 14 consecutive days measured on day 15 relative to control; type: functional; settings: 360 h, read-out: TGI
PC-9 [26] = assay: Antitumor activity against human PC9 cells harboring EGFR exon-19 del mutant xenografted in castrated nude mouse assessed as tumor growth inhibition at 2 mg/kg, po daily for 14 consecutive days measured on day 15 relative to control; type: functional; settings: PC-9, po, 360 h, read-out: TGI
HCC827 [27] = assay: Antitumor activity against human HCC827 cells harboring EGFR exon-19 del mutant xenografted in castrated nude mouse assessed as tumor growth inhibition administered orally daily for 14 consecutive days measured on day 15; type: functional, cell-based
[28] = Selectivity index, ratio of IC50 for human Calu3 cells harboring WT EGFR to IC50 for human HCC827 cells harboring EGFR mutant
PC-9 [29] = assay: Antitumor activity against human PC9 cells harboring EGFR exon-19 del mutant xenografted in castrated nude mouse assessed as tumor growth inhibition administered orally daily for 14 consecutive days measured on day 15; type: functional, cell-based
NCI-H1975 [30] = assay: Antitumor activity against human NCI-H1975 cells harboring EGFR T790M/L858R double mutant xenografted in castrated nude mouse assessed as tumor growth inhibition at 10 mg/kg, po daily for 14 consecutive days measured on day 15 relative to control; type: functional; settings: 360 h, read-out: TGI
[31] = Selectivity index, ratio of IC50 for human Calu3 cells harboring WT EGFR to IC50 for human PC9 cells harboring EGFR mutant
NCI-H1975 [32] = assay: Antitumor activity against human NCI-H1975 cells harboring EGFR T790M/L858R double mutant xenografted in castrated nude mouse assessed as tumor growth inhibition at 20 mg/kg, po daily for 14 consecutive days measured on day 15 relative to control; type: functional; settings: Mus musculus, NCI-H1975, po, 360 h; read-out: TGI
PC-9 [33] = assay: Antitumor activity against human PC9 cells harboring EGFR exon-19 del mutant xenografted in castrated nude mouse assessed as tumor growth inhibition at 10 mg/kg, po daily for 14 consecutive days measured on day 15 relative to control; type: functional; settings: Mus musculus, PC-9, po, 360 h; read-out: TGI
HCC827 [34] = assay: Antitumor activity against human HCC827 cells harboring EGFR exon-19 del mutant xenografted in castrated nude mouse assessed as tumor growth inhibition at 10 mg/kg, po daily for 14 consecutive days measured on day 15 relative to control; type: functional; settings: Mus musculus, HCC827, po, 360 h; read-out: TGI
[35] = molecular target: T1, Epidermal growth factor receptor; assay: Inhibition of WT EGFR phosphorylation at Y1068 residue in human A431 cells up to 10 uM after 4 hrs by Western blot analysis; type: cell-based

Work on `C=CC(=O)Nc1cc(Nc2nccc(-c3nn(C)c4ccsc34)n2)c(OC)cc1N(C)CCN(C)C` yielded a RatioGI50 [1] of 19.5, a GI50 at 72 h [2] of 209 nM and a GI50 (NCI-H1975 [3]) of 10.7 nM.
For `C=CC(=O)Nc1cc(Nc2nccc(-c3cn(C)c4cccnc34)n2)c(OC)cc1N(C)CCNC`, the IC50 (A-431) was 3.47 µM, the IC50 (HCC827 [4]) was 42 nM and the Drug metabolism [5] was “Metabolite_Detected”. The IC50 (Calu-6) was > 10 µM, the IC50 (Calu-3) was > 10 µM and the IC50 [6] was 277 µM. The IC50 [7] was 6.6 µM, the IC50 (NCI-H1975 [3]) was 270 nM and the Ratio IC50 (Homo sapiens) was 42. The IC50 [8] was 12 µM and the IC50 (PC-9 [9]) was 330 nM.
For `C=CC(=O)Nc1cc(Nc2nccc(-c3noc4ccccc34)n2)c(OC)cc1N(C)CCN(C)C`, the RatioGI50 [1] was 15.1, the GI50 at 72 h [2] was 110 nM and the GI50 (NCI-H1975 [3]) was 7.3 nM.
With `C=CC(=O)Nc1cc(Nc2nccc(-c3cn(C)c4cccnc34)n2)c(OC)cc1N1CCC[C@H]1CN(C)C` the RatioGI50 [1] was 0.7, the GI50 at 72 h [2] was 2100 nM and the GI50 (NCI-H1975 [3]) was 2880 nM.
For `C=CC(=O)Nc1cc(Nc2nccc(-c3cn(C)c4cccnc34)n2)c(OC)cc1N(C)CCN(C)C`, the RatioGI50 [1] was 73.5, the Activity [10] was “Non-Toxic” and the “Ratio IC50” value [11] was 16.5. For the same compound, the “Ratio IC50” value [12] was 23.5, the TGI (NCI-H1975 [13]) was “Dose-dependent effect” and the GI50 at 72 h [2] was 500 nM. The IC50 (A-431) was 3.29 µM, the inhibition in vivo at 3 mg/kg (HCC827 [14]) was 119% and the Activity [15] was “Non-Toxic”. The IC50 (HCC827 [4]) was 15 nM, the Activity [16] was “Non-Toxic” and the “Ratio IC50” value [17] was 219.3. The inhibition in vivo at 5 mg/kg (PC-9 [18]) was 94%, the inhibition in vivo at 40 mg/kg (NCI-H1975 [19]) was 106% and the “Ratio IC50” value [20] was 71.4. For the same compound, the inhibition in vivo at 1 mg/kg (HCC827 [21]) was 83%, the inhibition in vivo at 5 mg/kg (NCI-H1975 [22]) was 48% and the inhibition in vivo at 20 mg/kg (PC-9 [23]) was 107%. For the same compound, the IC50 (Calu-6) was > 10 µM, the IC50 (Calu-3) was > 10 µM and the IC50 [6] was 63 µM. For the same compound, the “inhibition (INH)” value [24] was “Not Active”, the inhibition in vivo at 0.3 mg/kg (HCC827 [25]) was 74% and the IC50 [7] was 2.1 µM. The inhibition in vivo at 2 mg/kg (PC-9 [26]) was 67%, the GI50 (NCI-H1975 [3]) was 6.8 nM and the IC50 (NCI-H1975 [3]) was 140 nM. The TGI (HCC827 [27]) was “Dose-dependent effect”, the “Ratio IC50” value [28] was 666.7 and the Ratio IC50 (Homo sapiens) was 30. For the same compound, the TGI (PC-9 [29]) was “Dose-dependent effect”, the inhibition in vivo at 10 mg/kg (NCI-H1975 [30]) was 84% and the “Ratio IC50” value [31] was 50. It also gave an IC50 [8] of 5.5 µM, an inhibition in vivo at 20 mg/kg (NCI-H1975 [32]) of 99% and an inhibition in vivo at 10 mg/kg (PC-9 [33]) of 104%. The inhibition in vivo at 10 mg/kg (HCC827 [34]) was 125%, the “inhibition (INH)” value [35] was “Not Active” and the IC50 (PC-9 [9]) was 200 nM.
`C=CC(=O)Nc1cc(Nc2nccc(-c3cn(C)c4cccnc34)n2)c(OC(F)F)cc1N1CCN(C)CC1` gave a RatioGI50 [1] of 8.7, a GI50 at 72 h [2] of 1440 nM and a GI50 (NCI-H1975 [3]) of 166 nM.
In the case of `C=CC(=O)Nc1cc(Nc2nccc(-c3cn(C)c4cccnc34)n2)c(OC)cc1NCCN(C)C`, the IC50 (A-431) is reported as 6.78 µM, the IC50 (HCC827 [4]) is reported as 75 nM and the Drug metabolism [5] is reported as “Metabolite_Detected”. The IC50 (Calu-6) was > 10 µM, the IC50 (Calu-3) was > 10 µM and the IC50 [6] was 77 µM. For the same compound, the IC50 [7] was 15 µM, the IC50 (NCI-H1975 [3]) was 790 nM and the Ratio IC50 (Homo sapiens) was 5.1. The IC50 [8] was 12 µM and the IC50 (PC-9 [9]) was 740 nM.
With `C=CC(=O)Nc1cc(Nc2nccc(-c3noc4ccccc34)n2)c(OC(F)F)cc1N1CCN(C)CC1` the RatioGI50 [1] was 35.1, the GI50 at 72 h [2] was 1720 nM and the GI50 (NCI-H1975 [3]) was 49 nM.
For `C=CC(=O)Nc1cc(Nc2nccc(-c3cn(C)c4cccnc34)n2)c(OC(F)F)cc1N1CCC[C@H]1CN(C)C`, the RatioGI50 [1] was 3.9, the GI50 at 72 h [2] was 724 nM and the GI50 (NCI-H1975 [3]) was 184 nM.
